Test [1] deals with Mtb H37Rv resistant isolates with mmpL3 mutations. The test is classed as cell-based, Mycobacterium tuberculosis.
The test system of another test is Mtb T 27 (INH-resistant). Nature of the test: microbe, parasite or virus in culture. To be noted: Mycobacterium tuberculosis. The test is classed as cell-based.
For test [2], the system named is Mtb Beijing 22 (RIF-resistant). Nature of the test: microbe, parasite or virus in culture. The format is cell-based. To be noted: Mycobacterium tuberculosis.
Test [3] has as its system Mtb Haarlem 9 (RIF-resistant). Nature of the test: microbe, parasite or virus in culture. The format is cell-based. To be noted: Mycobacterium tuberculosis.

Experimental findings from PMC6742494 (ACS infectious diseases, 2016) are described below.

Converted amounts (≈) assume the structure as drawn. “And” between values parts separate entries of the source, which are not always exact repeats. Equal entries are not always repeated.

Regarding `CO[C@H]1/C=C/O[C@@]2(C)Oc3c(C)c(O)c4c(O)c(c(/C=N/N5CCN(C)CC5)c(O)c4c3C2=O)NC(=O)/C(C)=C\C=C\[C@H](C)[C@H](O)[C@@H](C)[C@@H](O)[C@@H](C)[C@H](OC(C)=O)[C@@H]1C` [RIF, rifampicin], the “susceptibility of DA5^R and TBL-140^R strains” value (“susceptibility” below) in test [1] is “identical susceptibility as wild-type H37Rv”. In addition, the MIC against Mtb T 27 (INH-resistant) turned out to be 0.0125 µg/mL (≈ 0.0152 µM).

With `NNC(=O)c1ccncc1` [INH, isoniazid], the figures for the MIC (in test [2]; against Mtb T 27 (INH-resistant); in test [3]) were 0.025 µg/mL (≈ 0.182 µM), over 0.8 µg/mL and 0.025 µg/mL (≈ 0.182 µM), respectively. The “susceptibility” value in test [1] was “identical susceptibility as wild-type H37Rv”.

As to `FC(F)(F)Oc1ccc(Oc2ccc(CNCCNC3C4CC5CC(C4)CC3C5)cc2)cc1` (centres unmarked) [Compound 8, N^1-adamantan-2-yl-N^2-(4-(4-(trifluoro-methoxy)phenoxy)benzyl)ethane-1,2-diamine], the MIC in test [2] stood at 1.2 µg/mL (≈ 2.61 µM); in the test on Mtb T 27 (INH-resistant), 0.58 µg/mL (≈ 1.26 µM); in test [3], 1.2 µg/mL (≈ 2.61 µM).

`CC(C)=CCC/C(C)=C/CNCCNC1C2CC3CC(C2)CC1C3` (centres unmarked) [SQ109]: the MIC in test [1] was 6.25 µg/mL and 12.5 µg/mL.

Take `CC[C@@H](CO)NCCN[C@@H](CC)CO` [EMB, ethambutol]: the MIC (in test [2]; with Mtb T 27 (INH-resistant); in test [3]) was 1 µg/mL (≈ 4.89 µM) in each case. The “susceptibility” value in test [1] was “identical susceptibility as wild-type H37Rv”.
